Each block holds one molecule with its values, some of them ahead of it.
Legend:
[1] = target: T1, Human pancreatic α-amylase (HPA) (Homo sapiens, UniProt P04746); experiment: biochemical
T1 sequence (P04746 16-511): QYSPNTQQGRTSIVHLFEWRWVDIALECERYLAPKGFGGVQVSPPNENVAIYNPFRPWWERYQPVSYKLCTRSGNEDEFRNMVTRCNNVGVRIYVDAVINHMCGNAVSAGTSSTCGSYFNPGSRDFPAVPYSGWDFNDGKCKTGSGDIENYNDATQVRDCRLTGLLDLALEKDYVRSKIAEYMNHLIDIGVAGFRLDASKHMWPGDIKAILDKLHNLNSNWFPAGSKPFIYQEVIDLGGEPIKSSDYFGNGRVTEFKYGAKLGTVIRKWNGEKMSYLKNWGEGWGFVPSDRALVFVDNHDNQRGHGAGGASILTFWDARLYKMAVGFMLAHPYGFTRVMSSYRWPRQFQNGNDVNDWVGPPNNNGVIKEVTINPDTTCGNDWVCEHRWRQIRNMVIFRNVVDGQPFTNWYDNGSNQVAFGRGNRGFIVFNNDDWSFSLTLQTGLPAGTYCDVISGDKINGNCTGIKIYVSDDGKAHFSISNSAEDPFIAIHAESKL

[2] = target: E. coli β-galactosidase (Escherichia coli, UniProt P00722); experiment: Specificity analysis of M10: E. coli β-galactosidase; details: read-out: M10 IC50; 37 °C, pH 7, 1.0 mM MgCl2
[3] = target: T2, Agrobacterium β-glucosidase (Agrobacterium sp., UniProt P12614); experiment: Specificity analysis of M10: Agrobacterium β-glucosidase; assay type: biochemical
T2 sequence (P12614 1-459): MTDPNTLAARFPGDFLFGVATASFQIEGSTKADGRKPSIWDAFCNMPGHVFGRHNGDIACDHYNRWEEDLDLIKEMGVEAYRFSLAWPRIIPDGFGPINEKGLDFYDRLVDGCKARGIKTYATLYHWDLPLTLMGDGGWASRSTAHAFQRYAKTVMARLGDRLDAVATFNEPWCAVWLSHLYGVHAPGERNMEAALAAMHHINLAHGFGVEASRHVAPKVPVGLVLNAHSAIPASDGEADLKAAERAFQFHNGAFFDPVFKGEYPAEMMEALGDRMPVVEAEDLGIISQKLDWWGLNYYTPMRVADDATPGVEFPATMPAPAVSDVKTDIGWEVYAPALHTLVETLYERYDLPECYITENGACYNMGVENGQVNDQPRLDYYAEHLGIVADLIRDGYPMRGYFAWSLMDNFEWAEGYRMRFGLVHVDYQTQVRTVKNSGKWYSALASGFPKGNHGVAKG

[4] = target: H. sapiens C-term sucrase-isomaltase (Homo sapiens, UniProt P14410); experiment: Specificity analysis: C-term sucrase-isomaltase; assay type: biochemical; details: read-out: M10 IC50; 37 °C, pH 7, PNP α-Glc
[5] = target: Green coffee bean α-galactosidase (Coffea arabica, UniProt Q42656); experiment: Specificity analysis of M10: green coffee bean α-galactosidase; assay type: biochemical; details: read-out: M10 IC50; 37 °C, pH 7
[6] = target: T1, Human pancreatic α-amylase (HPA); details: relative to M09
[7] = target: Homo sapiens maltase-glucoamylase (Homo sapiens, UniProt O43451); experiment: Specificity analysis of M10: maltase-glucoamylase; assay type: biochemical; details: read-out: M10 IC50; 37 °C, pH 7, PNP α-Glc
[8] = target: T3, Jack bean α-mannosidase (Canavalia ensiformis, UniProt C0HJB3); experiment: Specificity analysis of M10: Jack bean α-mannosidase; assay type: biochemical; details: read-out: M10 IC50; 37 °C, pH 7
T3 sequence (C0HJB3 1-981): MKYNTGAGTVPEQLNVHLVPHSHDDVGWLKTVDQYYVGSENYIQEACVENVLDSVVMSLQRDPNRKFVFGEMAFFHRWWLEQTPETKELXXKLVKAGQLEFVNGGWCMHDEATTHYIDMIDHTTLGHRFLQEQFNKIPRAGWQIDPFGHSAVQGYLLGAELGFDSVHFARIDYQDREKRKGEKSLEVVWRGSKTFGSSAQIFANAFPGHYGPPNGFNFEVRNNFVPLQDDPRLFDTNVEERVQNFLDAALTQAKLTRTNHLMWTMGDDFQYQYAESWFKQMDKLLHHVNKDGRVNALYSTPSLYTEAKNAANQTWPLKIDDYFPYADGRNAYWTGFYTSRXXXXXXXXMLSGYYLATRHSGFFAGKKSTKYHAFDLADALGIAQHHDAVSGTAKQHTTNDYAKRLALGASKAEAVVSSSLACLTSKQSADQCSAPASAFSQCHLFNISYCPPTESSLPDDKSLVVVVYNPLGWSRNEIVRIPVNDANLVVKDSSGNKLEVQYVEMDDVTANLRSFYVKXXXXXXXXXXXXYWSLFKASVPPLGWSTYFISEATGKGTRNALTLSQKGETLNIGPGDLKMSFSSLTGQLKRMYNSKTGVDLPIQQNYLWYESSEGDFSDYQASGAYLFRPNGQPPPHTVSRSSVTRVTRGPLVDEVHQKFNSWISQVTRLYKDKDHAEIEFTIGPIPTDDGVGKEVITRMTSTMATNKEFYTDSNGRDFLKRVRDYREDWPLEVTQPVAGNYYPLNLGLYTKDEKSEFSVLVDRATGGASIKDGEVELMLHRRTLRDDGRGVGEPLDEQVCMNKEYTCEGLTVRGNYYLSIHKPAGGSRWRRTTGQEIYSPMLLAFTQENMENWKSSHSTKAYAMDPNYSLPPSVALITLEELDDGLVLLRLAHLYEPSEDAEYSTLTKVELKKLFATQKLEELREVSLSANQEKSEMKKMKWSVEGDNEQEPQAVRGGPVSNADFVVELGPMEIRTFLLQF

Sequence of Green coffee bean α-galactosidase (Q42656 16-378): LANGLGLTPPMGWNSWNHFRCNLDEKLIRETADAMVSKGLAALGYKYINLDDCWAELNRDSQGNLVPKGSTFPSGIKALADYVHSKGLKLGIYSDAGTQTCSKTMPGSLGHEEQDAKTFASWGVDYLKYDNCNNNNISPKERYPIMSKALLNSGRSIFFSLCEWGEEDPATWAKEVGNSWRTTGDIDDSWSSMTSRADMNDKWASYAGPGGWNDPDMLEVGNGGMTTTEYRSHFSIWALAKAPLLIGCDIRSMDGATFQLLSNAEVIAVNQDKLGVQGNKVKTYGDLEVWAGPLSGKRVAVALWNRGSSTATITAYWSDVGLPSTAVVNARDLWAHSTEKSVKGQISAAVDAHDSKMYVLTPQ
Sequence of E. coli β-galactosidase (P00722 2-1024 limits assumed): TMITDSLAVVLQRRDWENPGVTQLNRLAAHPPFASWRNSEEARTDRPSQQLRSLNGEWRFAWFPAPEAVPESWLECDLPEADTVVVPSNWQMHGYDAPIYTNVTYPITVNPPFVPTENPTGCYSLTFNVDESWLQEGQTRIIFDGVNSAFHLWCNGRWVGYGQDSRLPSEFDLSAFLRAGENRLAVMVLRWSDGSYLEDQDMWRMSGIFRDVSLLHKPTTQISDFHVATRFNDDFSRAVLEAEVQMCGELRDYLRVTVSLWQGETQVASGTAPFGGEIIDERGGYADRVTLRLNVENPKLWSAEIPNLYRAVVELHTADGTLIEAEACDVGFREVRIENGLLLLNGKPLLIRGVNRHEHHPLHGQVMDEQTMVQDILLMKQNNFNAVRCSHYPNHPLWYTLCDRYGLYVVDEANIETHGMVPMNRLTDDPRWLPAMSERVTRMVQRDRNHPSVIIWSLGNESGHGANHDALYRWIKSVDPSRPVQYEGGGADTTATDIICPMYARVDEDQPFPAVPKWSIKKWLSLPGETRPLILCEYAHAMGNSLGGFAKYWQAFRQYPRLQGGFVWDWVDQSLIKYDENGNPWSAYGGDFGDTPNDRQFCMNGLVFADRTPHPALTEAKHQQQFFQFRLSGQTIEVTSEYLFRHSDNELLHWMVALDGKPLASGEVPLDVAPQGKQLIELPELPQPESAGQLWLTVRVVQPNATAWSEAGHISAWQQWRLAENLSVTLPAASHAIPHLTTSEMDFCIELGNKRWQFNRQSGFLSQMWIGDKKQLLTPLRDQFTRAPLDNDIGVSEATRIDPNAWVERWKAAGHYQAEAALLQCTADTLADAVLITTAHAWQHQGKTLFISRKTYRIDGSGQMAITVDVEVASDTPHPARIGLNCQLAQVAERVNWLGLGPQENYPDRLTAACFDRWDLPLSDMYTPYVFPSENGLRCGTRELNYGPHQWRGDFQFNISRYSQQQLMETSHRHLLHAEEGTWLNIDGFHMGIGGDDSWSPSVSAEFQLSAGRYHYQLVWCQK
Sequence of H. sapiens C-term sucrase-isomaltase (P14410 1008-1827 limits assumed): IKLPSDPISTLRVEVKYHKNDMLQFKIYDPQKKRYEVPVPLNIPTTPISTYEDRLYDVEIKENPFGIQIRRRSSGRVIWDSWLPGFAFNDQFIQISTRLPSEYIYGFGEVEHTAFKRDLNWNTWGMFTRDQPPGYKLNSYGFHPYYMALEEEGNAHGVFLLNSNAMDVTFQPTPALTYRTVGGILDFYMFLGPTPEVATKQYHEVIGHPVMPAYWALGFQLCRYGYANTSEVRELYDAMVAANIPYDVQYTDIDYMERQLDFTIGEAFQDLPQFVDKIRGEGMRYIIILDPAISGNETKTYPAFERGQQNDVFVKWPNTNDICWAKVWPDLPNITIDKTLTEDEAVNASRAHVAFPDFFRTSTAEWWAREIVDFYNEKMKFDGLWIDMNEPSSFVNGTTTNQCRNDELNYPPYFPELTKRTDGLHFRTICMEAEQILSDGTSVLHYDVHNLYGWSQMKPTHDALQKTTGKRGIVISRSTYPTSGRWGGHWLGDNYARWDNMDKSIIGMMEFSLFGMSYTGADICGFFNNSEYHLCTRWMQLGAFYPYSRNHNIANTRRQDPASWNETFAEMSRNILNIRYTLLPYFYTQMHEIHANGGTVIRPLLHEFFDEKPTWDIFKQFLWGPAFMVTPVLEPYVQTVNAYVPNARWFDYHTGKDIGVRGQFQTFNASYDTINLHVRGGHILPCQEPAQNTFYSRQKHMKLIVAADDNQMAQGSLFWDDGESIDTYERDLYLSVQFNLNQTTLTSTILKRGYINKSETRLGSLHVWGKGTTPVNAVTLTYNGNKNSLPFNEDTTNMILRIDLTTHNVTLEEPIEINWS

Ki [1]: 110 ± 10 µM
Compound: O=C(/C=C/c1ccc(O)c(O)c1)NCCCOc1c(-c2ccc(O)c(O)c2)oc2cc(O)cc(O)c2c1=O [M03]

Ki [1]: 60 ± 10 µM
Compound: O=C(/C=C/c1ccc(O)c(O)c1)NCC(=O)NCCCOc1c(-c2ccc(O)c(O)c2)oc2cc(O)cc(O)c2c1=O [M05]

Compound: O=C(/C=C/c1ccc(O)c(O)c1)N[C@@H](Cc1ccc(O)cc1)C(=O)NCCCOc1c(-c2ccc(O)c(O)c2)oc2cc(O)cc(O)c2c1=O [M10]
IC50 [2]: > 7 µM
IC50 [3]: 35.4 ± 5.7 µM
IC50 [4]: > 7 µM
IC50 [5]: > 7 µM
Further contribution to the binding affinity [6]: ~2.5 kcal mol^–1
IC50 [7]: > 7 µM
IC50 [8]: > 7 µM

Ki [1]: 0.06 µM
Further contribution to the binding affinity [6]: ~2.5 kcal mol^–1
Compound: O=C(/C=C/c1ccc(O)c(O)c1)N[C@@H](Cc1ccc(O)c(O)c1)C(=O)NCCCOc1c(-c2ccc(O)c(O)c2)oc2cc(O)cc(O)c2c1=O [M11]
